According to patent publication US7767714B2, “Method of preventing infectious diseases” (Ajinomoto Co., Inc., priority 2002, dated 2010):

What was measured:
[1] = system: influenza virus A/Aichi/2/68 (H3N2); test: Body weight change of mice after influenza virus infection (Example 1); assay type: in vivo, BALB/c female mice; conditions: mouse; feed with 0.5 wt % L-cystine and/or 0.2 wt % L-theanine for 2 weeks; 10^5 PFU nasally; versus control group on basic feed; FIG. 1
From the text: 4-week-old BALB/c female mice in the growth period were preliminarily raised on a solid feed (CRF-1 solid feed, Charles River Japan, inc.) for one week, then preliminarily raised on a powder feed (CRF-1 powder feed, Charles River Japan, inc.) for one week, and when they reached 6 weeks of age, the feed was changed to a feed containing 20 wt % of casein as a protein source (basic feed: composition: α-corn starch 68.3 wt %, casein 20 wt %, mineral mixture 3.5 wt %, vitamin mixture 1 wt %, cellulose powder 2 wt %, corn-oil 5 wt %, choline bitartrate 0.2 wt %), the same feed supplemented with 0.5 wt % of L-cystine as an amino acid, the same feed supplemented with 0.2 wt % of L-theanine as an amino acid, and the same feed supplemented with 0.5 wt % of L-cystine and 0.2 wt % of L-theanine as amino acids (the present invention), and further raised for 2 weeks. Those continuously raised on the basic feed were used as a control group. Ten mice were used for the test for each group.
At two weeks of the amino acid addition feed administration, 10^5 PFU influenza virus A/Aichi/2/68 (H3N2) was nasally inoculated, the body weight of the mice was measured immediately before virus inoculation and day 5 of infection.
Thus, it was clarified that a concurrent use of L-theanine enhanced the action of L-cystine.

[2] = system: trichomonas; conditions: extremely high concentration of theanine, in vitro cultivation system; Nature 166, 352, 1950; cited from earlier work
[3] = system: Staphylococcus aureus; conditions: J. Biol. Chem. 171, 387, 1947; Chem. Pharm. Bull. 28, 3549-3554, 1980; cited from earlier work
[4] = system: Escherichia coli; conditions: Chem. Pharm. Bull. 28, 3549-3554, 1980; cited from earlier work

For N[C@@H](CSSC[C@H](N)C(=O)O)C(=O)O [L-cystine], the “body weight change at day 5 of influenza virus infection” value [1] was “suppressed somewhat”.
In the case of CCNC(=O)CC[C@H](N)C(=O)O [L-theanine], the “body weight change at day 5 of influenza virus infection” value [1] is reported as “body weight decrease of the same level as that of the control group”.
In the case of CCNC(=O)CC[C@H](N)C(=O)O [theanine], the trichomonas growth [2] is listed as “suppression of trichomonas growth”, the “growth of Staphylococcus aureus” value [3] is listed as “suppression of growth of Staphylococcus aureus” and the “growth of Escherichia coli” value [4] is listed as “suppression of growth of Staphylococcus aureus and Escherichia coli”.
